The target in assay [1] is T1, Bromodomain-containing protein 4 (Homo sapiens, UniProt O60885). Description: Inhibition of BRD4 (unknown origin) BD1 domain incubated for 18 hrs.
In assay [2] the test system is MV4-11. Description: Antitumor activity against human MV4-11 cells xenografted in mouse assessed as TGI at 1 mg/kg, po measured after 7 days relative to control. Type of assay: functional. The following applies: MV4-11, 168 h, time 7 day, read-out: TGI.
Assay [3] has as its target T1, Bromodomain-containing protein 4. Put plainly: Inhibition of human full length BRD4.
The target is the same in assay [4]. Description: Induction of BRD4 (unknown origin) degradation at 100 nM relative to control.
For assay [5] the target is unchanged. Description: Inhibition of BRD4 (unknown origin) BD1 domain.
The target in assay [6] is Histone deacetylase. Put plainly: Inhibition of HDAC (unknown origin). In kind it is protein assay, Homo sapiens.
Assay [7] has as its target T1, Bromodomain-containing protein 4. Description: Induction of BRD4 degradation in human MV4-11 cells at 100 nM measured after 18 hrs relative to control. In kind it is cell-based.

This note sets out measurements from ChEMBL document CHEMBL5244243, “Novel strategies targeting bromodomain-containing protein 4 (BRD4) for cancer drug discovery” (Eur J Med Chem, 2020).

SMILES strings stand for the structures.

Turning to `COc1nnc2ccc(N3CCC(c4ccc(OCCN5CCN(C)C(=O)[C@H]5C)cc4)CC3)nn12` [AZD-5153], the IC50 in assay [1] was determined as 1.6 nM. In addition, the inhibition in vivo at 1 mg/kg in assay [2] worked out at 72%.

`Cc1noc(C)c1-c1ccc2c(c1)c(Cc1ccc(F)cc1)cn2CCCCCCC(=O)NO` had an IC50 in assay [3] of 5 nM.

As for `Cc1ncsc1-c1ccc(CNC(=O)[C@@H]2C[C@@H](O)CN2C(=O)C(NC(=O)COCCOCCOCCNC(=O)C[C@@H]2N=C(c3ccc(Cl)cc3)c3c(sc(C)c3C)-n3c(C)nnc32)C(C)(C)C)cc1` (some centres not stated), the Activity in assay [4] is 90%.

Take `Cc1sc2c(c1C)C(c1ccc(Cl)cc1)=N[C@@H](CC(=O)Nc1ccc(C(=O)NO)cc1)c1nnc(C)n1-2`: the values for the half-inhibitory concentration (IC50) in assay [5] and in assay [6] were 11 nM and 21 nM, respectively.

`Cc1sc2c(c1C)C(c1ccc(Cl)cc1)=N[C@@H](CC(=O)NCCCCNC(=O)COc1cccc3c1C(=O)N(C1CCC(=O)NC1=O)C3=O)c1nnc(C)n1-2` (some centres not stated): the Activity in assay [7] was 87%.
